# According to patent US6376511B2, “8-aminoquinolines” (The University of Mississippi, priority 1999, dated 2002):
# Where two headings read alike, the source gives them in different places.
# What was measured:
# Pneumocystis carinii = experiment: Anti-Pneumocystis carinii test (induced Pneumocystis carinii infection in immunosuppressed mice), oral; assay type: in vivo; settings: for Number of animals with organism after treatment/Number of animals treated, Giesma Stain: mice (Table 8); for Giemsa Stain Score / Silver stain Score / Giemsa Stain I/T (animals with organism after treatment/animals treated) / Silver stain I/T (animals with organism after treatment/animals treated): mice; for Giemsa Stain Score / Silver stain Score: mean score on 0 to 5+ scale
# [1] = mice; cited from earlier work
# [2] = test system: Plasmodium berghei KBG-173; experiment: Prophylactic test, Plasmodium berghei infection in mice, oral; assay type: in vivo; settings: single dose of 2 mg/kg
# Source text: CD-I male or female mice, 5 weeks of age, were infected with 5×10^4 parasitized erythrocytes ot Plasmodium berghei KBG-173 mm strain. Blood films were taken on day +6 and weekly thereafter until day+30. […]
# [3] = test system: Plasmodium berghei KBG-173; assay type: in vivo; settings: for Parasitemia Day 6: percentage of red blood cells with parasites, control 31.8; for Mice surviving 60 days/Mice infected and treated: P. berghei in mice
# Method: Blood Schizontocidal Test (Trophozoite-Induced Plasmodium berghei Infection in mice University of Miami, Test System: Thompson Test
# Drugs were mixed in 0.5% hydroxycellulose 0.1% Tween 80 and administered orally b.i.d. on days 3, 4 and 5 postinfection. CD-1 male or female mice, 5 weeks of age, were infected with 5×10^4 parasitized erythrocytes of Plasmodium berghei KBG-173 mm strain. Blood films were taken on day +6 and weekly thereafter until day +60. Parasitemias were calculated and SD90 value (dose suppressing 90% of the parasites in treated groups compared with the infected non-treated controls) on day +6 postinfection. Mortality data was tabulated for 60 days at which time all mice surviving that were blood film negative were considered cured.
# […] The activity of these compounds were compared with the untreated control and “racemate” which is a mixture of equal amount of each enantiomer X and Y. In untreated controls, death occurs within 8-9 days. Compounds which are effective against Plasmodium berghei infection increase the mean survival time of the infected animals when compared with the untreated controls. Mice that survive after thirty days and are free of parasites in blood are considered cured.
# Efficacy of the drug is determined by the number of cures at the end of a 30 day period and the increase in mean survival time over the control (ΔMST). The effect of the test drugs also could be determined by the reduction of the parasitemia (percentage of the red blood cells detected with the parasites) over the untreated control on day 6, one day after the treatment is completed. Both these methods yield virtually identical results. If the dose of test compounds are inadequate, after initial clearance, residual parasites will multiply and relapses will occur within thirty days. The blood schizontocidal activities (suppressive antimalarial) of X, Y, and racemate against P. berghei in mice are shown in Table 11.
# [4] = test system: trypanosome isolate KETRI 243As103; experiment: Antitrypanosomal activity, trypanosome isolates grown as blood forms in HMI-18; assay type: cell-based, Trypanosoma; settings: KETRI 243As103, after 48 h, 20% horse serum; succinate
# Method: (§1) Compounds were tested vs. trypanosome isolates grown as blood forms in HMI-18 (Hirumi H., Hirumi, K. 1989. Continuous Cuitivation of Trypanosoma brucei bloodstream forms in a medium containing a low concentration of serum portein without feeder cell layers. J. Parasitol. 75:985-989) containing 20% horse serum.
# [5] = test system: trypanosome isolate EATRO Lab 110; experiment: as above; assay type: cell-based, Trypanosoma; settings: EATRO Lab 110, after 48 h, 20% horse serum, read-out: IC50
# Method: as §1
# [6] = test system: trypanosome isolate KETRI 269; experiment: as above; assay type: cell-based, Trypanosoma; settings: KETRI 269, after 48 h, 20% horse serum, read-out: IC50
# Method: as §1
# [7] = test system: trypanosome isolate KETRI 243; experiment: as above; assay type: cell-based, Trypanosoma; settings: KETRI 243, after 48 h, 20% horse serum; succinate; read-out: IC50
# Method: as §1
# [8] = rhesus monkey; cited from earlier work
# L. donovani Chagasi PP75 = experiment: In vitro anti-Leishmania activity, Giemsa counts; assay type: cell-based; settings: 1350 ng/mL; control 6.35
# P. cynomolgi = settings: rhesus monkey, cited from earlier work
# [9] = 0.25 mg/kg/day, 0.75 mg/kg total, succinate
# [10] = 1 mg/kg/day, 3 mg/kg total, succinate
# [11] = 4 mg/kg/day, 12 mg/kg total, succinate
# [12] = oral 0.25 mg/kg/day (x21), succinate, 0.25 mg/kg/day
# [13] = oral dose 1 mg/kg/day (total dose 3 mg/kg)
# [14] = oral dose 4 mg/kg/day (total dose 12 mg/kg)
# [15] = oral dose 16 mg/kg/day (total dose 48 mg/kg)
# [16] = oral dose 64 mg/kg/day (total dose 192 mg/kg)
smiles,measurement,setting,value
"COc1cc(NC(C)CCCN)c2ncccc2c1 (single isomer, unassigned; (+)) [(+) Primaquine, reference compound]","Number of animals with organism after treatment/Number of animals treated, Giesma Stain",Pneumocystis carinii; oral 2 mg/kg/day (x21),10/10
same,"Number of animals with organism after treatment/Number of animals treated, Giesma Stain","Pneumocystis carinii; oral 5 mg/kg/day (x21), listed as (+) Enantiomer, 5 mg/kg/day",7/10
same,"Number of animals with organism after treatment/Number of animals treated, Giesma Stain","Pneumocystis carinii; oral 10 mg/kg/day (x21), listed as (+) Enantiomer, 10 mg/kg/day",1/10
same,toxicity relative to the l-form,[1],approximately 4 times
"COc1cc(NC(C)CCCN)c2nccc(C)c2c1Oc1ccc(Cl)c(Cl)c1 (single isomer, unassigned; (+)) [X, (+) 8-[(4-amino-1-methylbutyl)amino]-5-(3,4-dichlorophenoxy)-6-methoxy-4-methylquinoline succinate]",Mice surviving day 60/Mice infected and treated,"[2]; day of treatment 2 (Table 5), listed as X Enantiomer, succinate, 2 mg/kg",0/5
same,Mice surviving day 60/Mice infected and treated,"[2]; day of treatment -2 (Table 5), listed as X Enantiomer, succinate, 2 mg/kg",0/5
same,Mice surviving day 60/Mice infected and treated,[2]; day of treatment -3 (Table 5),0/5
same,Mice surviving day 60/Mice infected and treated,[2]; day of treatment -4 (Table 5),0/5
same,Mice surviving day 60/Mice infected and treated,[2]; day of treatment -5 (Table 5),0/5
same,Parasitemia Day 6,[3]; [9],28.2
same,Mice Alive Day 26,[3]; [9],0/5
same,ΔMST (increase in mean survival time over the control),[3]; [9],0 days
same,ΔMST (increase in mean survival time over the control),"[3]; 1 mg/kg/day, 3 mg/kg total",6 days
same,Parasitemia Day 6,[3]; [10],27.4
same,Mice Alive Day 26,[3]; [10],0/5
same,ΔMST (increase in mean survival time over the control),"[3]; 4 mg/kg/day, 12 mg/kg total",11 days
same,Parasitemia Day 6,[3]; [11],1.1
same,Mice Alive Day 26,[3]; [11],0/5
same,IC50,[4],36 µM
same,IC50,"[5]; Trypanosoma, 48 h",8.3 µM
same,IC50,"[6]; Trypanosoma, 48 h",37 µM
same,IC50,[7],34 µM
same,Giemsa Stain Score,Pneumocystis carinii; [12],0.55 ± 0.16
same,Silver stain Score,Pneumocystis carinii; [12],1.15 ± 0.16
same,Giemsa Stain I/T (animals with organism after treatment/animals treated),Pneumocystis carinii; [12],6/10
same,Silver stain I/T (animals with organism after treatment/animals treated),Pneumocystis carinii; [12],10/10
same,Giemsa Stain I/T (animals with organism after treatment/animals treated),Pneumocystis carinii; oral 0.5 mg/kg/day (x21),2/10
same,Silver stain I/T (animals with organism after treatment/animals treated),Pneumocystis carinii; oral 0.5 mg/kg/day (x21),2/10
same,Giemsa Stain Score,Pneumocystis carinii; oral 0.5 mg/kg/day (x21),0.20 ± 0.10
same,Silver stain Score,Pneumocystis carinii; oral 0.5 mg/kg/day (x21),0.1 ± 0.1
same,Giemsa Stain I/T (animals with organism after treatment/animals treated),Pneumocystis carinii; oral 1 mg/kg/day (x21),0/10
same,Silver stain I/T (animals with organism after treatment/animals treated),Pneumocystis carinii; oral 1 mg/kg/day (x21),0/10
same,Giemsa Stain Score,Pneumocystis carinii; oral 1 mg/kg/day (x21),0.0
same,Silver stain Score,Pneumocystis carinii; oral 1 mg/kg/day (x21),0.0
same,Giemsa Stain I/T (animals with organism after treatment/animals treated),Pneumocystis carinii; oral 5 mg/kg/day (x21),0/10
same,Silver stain I/T (animals with organism after treatment/animals treated),Pneumocystis carinii; oral 5 mg/kg/day (x21),0/10
same,Giemsa Stain Score,Pneumocystis carinii; oral 5 mg/kg/day (x21),0.0
same,Silver stain Score,Pneumocystis carinii; oral 5 mg/kg/day (x21),0.0
"COc1cc(NC(C)CCCN)c2ncccc2c1 (single isomer, unassigned; (-)) [(−) Primaquine, reference compound]",toxicity relative to d-primaquine,[8],3 to 5 times
same,toxicity relative to racemic primaquine,[8],at least twice as toxic
same,"Number of animals with organism after treatment/Number of animals treated, Giesma Stain","Pneumocystis carinii; oral 5 mg/kg/day (x21), listed as (−) Enantiomer, 5 mg/kg/day",10/10
same,"Number of animals with organism after treatment/Number of animals treated, Giesma Stain","Pneumocystis carinii; oral 10 mg/kg/day (x21), listed as (−) Enantiomer, 10 mg/kg/day",10/10
"COc1cc(NC(C)CCCN)c2nccc(C)c2c1Oc1ccc(Cl)c(Cl)c1 (single isomer, unassigned; (-)) [Y, (−)-8-[(4-amino-1-methylbutyl)amino]-5-(3,4-dichlorophenoxy)-6-methoxy-4-methylquinoline succinate]",Mice surviving day 60/Mice infected and treated,"[2]; day of treatment 2 (Table 5), listed as Y Enantiomer, succinate, 2 mg/kg",5/5
same,Mice surviving day 60/Mice infected and treated,"[2]; day of treatment -2 (Table 5), listed as Y Enantiomer, succinate, 2 mg/kg",1/5
same,Mice surviving day 60/Mice infected and treated,[2]; day of treatment -3 (Table 5),0/5
same,Mice surviving day 60/Mice infected and treated,[2]; day of treatment -4 (Table 5),0/5
same,Mice surviving day 60/Mice infected and treated,[2]; day of treatment -5 (Table 5),0/5
same,Parasitemia Day 6,[3]; [9],0.2
same,Mice Alive Day 26,[3]; [9],0/0
same,ΔMST (increase in mean survival time over the control),[3]; [9],11.6 days
same,Parasitemia Day 6,[3]; [10],0.0
same,Mice Alive Day 26,[3]; [10],4/5
same,ΔMST (increase in mean survival time over the control),[3]; [10],13.6 days
same,Parasitemia Day 6,[3]; [11],0.0
same,Mice Alive Day 26,[3]; [11],5/5
same,IC50,[4],17.5 µM
same,IC50,[5]; succinate,13.5 µM
same,IC50,[6]; succinate,27 µM
same,IC50,[7],11 µM
same,"activity in the mouse model of PCP, enantiomer comparison",Pneumocystis carinii; (−) versus (+) enantiomer of DN3-27-1,significantly greater activity than the (+) enantiomer
same,Giemsa Stain Score,Pneumocystis carinii; [12],0.0
same,Silver stain Score,Pneumocystis carinii; [12],0.0
same,Giemsa Stain I/T (animals with organism after treatment/animals treated),Pneumocystis carinii; [12],0/10
same,Silver stain I/T (animals with organism after treatment/animals treated),Pneumocystis carinii; [12],0/10
same,Giemsa Stain I/T (animals with organism after treatment/animals treated),Pneumocystis carinii; oral 1 mg/kg/day (x21),0/10
same,Silver stain I/T (animals with organism after treatment/animals treated),Pneumocystis carinii; oral 1 mg/kg/day (x21),0/10
same,Giemsa Stain Score,Pneumocystis carinii; oral 1 mg/kg/day (x21),0.0
same,Silver stain Score,Pneumocystis carinii; oral 1 mg/kg/day (x21),0.0
same,Giemsa Stain I/T (animals with organism after treatment/animals treated),Pneumocystis carinii; oral 5 mg/kg/day (x21),0/10
same,Silver stain I/T (animals with organism after treatment/animals treated),Pneumocystis carinii; oral 5 mg/kg/day (x21),0/10
same,Giemsa Stain Score,Pneumocystis carinii; oral 5 mg/kg/day (x21),0.0
same,Silver stain Score,Pneumocystis carinii; oral 5 mg/kg/day (x21),0.0
"O=C1C(O)=C([C@H]2CC[C@H](c3ccc(Cl)cc3)CC2)C(=O)c2ccccc21 [Atovaquone, reference compound]",Giemsa Counts,L. donovani Chagasi PP75,5.05 ± 0.21
CCCCCOc1c(OC)cc(NC(C)CCCN)c2nccc(C)c12 (stereo not drawn) [Compound 4],Mice surviving 60 days/Mice infected and treated,[3]; [13],7/7
same,Mice surviving 60 days/Mice infected and treated,[3]; [14],7/7
same,Mice surviving 60 days/Mice infected and treated,[3]; [15],4/7
same,Mice surviving 60 days/Mice infected and treated,[3]; [16],0/7
"COc1cc(NC(C)CCCN)c2ncccc2c1 (stereo not drawn) [Primaquine, reference compound]",Mice surviving 60 days/Mice infected and treated,[3]; [13],0/7
same,Mice surviving 60 days/Mice infected and treated,[3]; [14],0/7
same,Mice surviving 60 days/Mice infected and treated,[3]; [15],1/7
same,Mice surviving 60 days/Mice infected and treated,[3]; [16],3/7
same,"Number of animals with organism after treatment/Number of animals treated, Giesma Stain","Pneumocystis carinii; oral 5 mg/kg/day (x21), 5 mg/kg/day",10/10
same,"Number of animals with organism after treatment/Number of animals treated, Giesma Stain","Pneumocystis carinii; oral 10 mg/kg/day (x21), 10 mg/kg/day",5/10
same,Monkeys infected and treated/cured,"P. cynomolgi; 0.316 mg/kg/day x7, orally",0/2
same,Monkeys infected and treated/cured,"P. cynomolgi; 1.0 mg/kg/day x7, orally",1/2
"COc1cc(NC(C)CCCN)c2nccc(C)c2c1Oc1cccc(C(F)(F)F)c1 (stereo not drawn) [WR-225,448, reference compound]",Mice surviving 60 days/Mice infected and treated,[3]; [13],7/7
same,Mice surviving 60 days/Mice infected and treated,[3]; [14],7/7
same,Mice surviving 60 days/Mice infected and treated,[3]; [15],7/7
same,Mice surviving 60 days/Mice infected and treated,[3]; [16],4/7
"COc1cc(C)c2c(Oc3cccc(C(F)(F)F)c3)c(OC)cc(NC(C)CCCN)c2n1 (stereo not drawn) [WR-238,605, reference compound]",Mice surviving 60 days/Mice infected and treated,[3]; [13],0/7
same,Mice surviving 60 days/Mice infected and treated,[3]; [14],1/7
same,Mice surviving 60 days/Mice infected and treated,[3]; [15],7/7
same,Mice surviving 60 days/Mice infected and treated,[3]; [16],1/7
